Consider 13 compounds from patent US11866430B2, “Naphthyridinone compounds useful as T cell activators” (priority 2018, dated 2024).

The target of assay [1] is T1, human DGKα (Homo sapiens (Human), UniProt P23743). Nature of the assay: biochemical. To be noted: detergent/lipid micelle substrate; read-out: DGKα IC50. In a few lines: (§1)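 Full-length human DGKζ (and DGKα), C-terminal His-tagged, Sf9-expressed, with phosphatidylserine/DAG micelles in 50 mM octyl glucoside; buffer 50 mM MOPS pH 7.5, 100 mM NaCl, 10 mM MgCl2, 1 μM CaCl2, 1 mM DTT.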

For assay [2], the target named is T2, human DGKζ (Homo sapiens (Human), UniProt Q13574). Description: DGKζ LIPGLO assay (extruded liposome substrate). It counts as biochemical. How it is done:
The DGKα and DGKζ reactions were performed using either extruded liposome (DGKα and DGKζ LIPGLO assays) or detergent/lipid micelle substrate (DGKα and DGKζ assays). The reactions were carried out in 50 mM MOPS pH 7.5, 100 mM NaCl, 10 mM MgCl2, 1 μM CaCl2, and 1 mM DTT (assay buffer). The reactions using a detergent/lipid micelle substrate also contained 50 mM octyl B-D-glucopyranoside.
(§2) A 5 mL enzyme/substrate solution at 2× final reaction concentration was prepared by combining 2.5 mL 4× enzyme solution (20 nM DGKα or DGKζ (prepared as described below) in assay buffer) and 2.5 mL of either 4× liposome or 4× detergent/lipid micelle solution (compositions described below) and incubated at room temperature for 10 minutes. Next, 1 μL 2× enzyme/substrate solution was added to wells containing the test compound and reactions were initiated with the addition of 1 μL 300 uM ATP. The reactions were allowed to proceed for 1 hr, after which 2 μL Glo Reagent (Promega V9101) was added and incubated for 40 minutes. Next, 4 μL Kinase Detection Reagent was added and incubated for 30 minutes. Luminescence was recorded using an EnVision microplate reader. […] The compounds were evaluated at 11 concentrations to determine IC50.
(§3) The PC, DAG, and PS were dissolved in chloroform, combined, and dried in vacuo to a thin film. The lipids were hydrated to 20 mM in 50 mM MOPS pH 7.5, 100 mM NaCl, 5 mM MgCl2, and were freeze-thawed five times. The lipid suspension was extruded through a 100 nm polycarbonate filter eleven times. […] The liposome preparation was stored at 4° C. for as long as four weeks.
Baculovirus amplification was achieved using infected Sf9 cells at 1:1500 virus/cell ratios, and grown for 65 hours at 27° C. post-transfection.
(§4) The expression scale up for each protein was carried out in the Cellbag 50 L WAVE-Bioreactor System 20/50 from GE Healthcare Bioscience. 12 L of 2×10^6 cells/mL Sf9 cells (Expression System, Davis, Calif.) grown in ESF921 insect medium (Expression System) were infected with virus stock at 1:200 virus/cell ratios, and grown for 66-68 hours at 27° C. post-infection. The infected cell culture was harvested by centrifugation at 2000 rpm for 20 min 4° C. in a SORVALL® RC12BP centrifuge. The cell pellets were stored at −70° C. until purification.
The cells were lysed using nitrogen cavitation method with a nitrogen bomb (Parr Instruments), and the lysates were clarified by centrifugation. […] The three steps column chromatography included nickel affinity resin capture (i.e. HisTrap FF crude, GE Healthcare), followed by size exclusion chromatography (i.e. HiLoad 26/600 Superdex 200 prep grade, GE Healthcare for DGK-alpha, and HiPrep 26/600 Sephacryl S 300_HR, GE Healthcare for DGK-zeta). The third step was ion exchange chromatography, and differed for the two isoforms. DGKα was polished using Q-Sepharose anion exchange chromatography (GE Healthcare). DGKζ was polished using SP Sepharose cation exchange chromatography (GE Healthcare). The proteins were delivered at concentrations of ≥2 mg/mL. The formulation buffers were identical for both proteins: 50 mM Hepes, pH 7.2, 500 mM NaCl, 10% v/v glycerol, 1 mM TCEP, and 0.5 mM EDTA.

The test system of assay [3] is pre-activated CD4 T cells and Raji cells. Description: Raji CD4 T Cell IL2 Assay. It counts as cell-based. To be noted: Homo sapiens, Raji.
For assay [4], the target named is T2, human DGKζ. Nature of the assay: DGKζ assay (detergent/lipid micelle substrate). Type of assay: biochemical. In a few lines:
as §1

For assay [5], the target named is T1, human DGKα. Description: DGKα LIPGLO assay (extruded liposome substrate). Type of assay: biochemical. As to the method: The DGKα and DGKζ reactions were performed using either extruded liposome (DGKα and DGKζ LIPGLO assays) or detergent/lipid micelle substrate (DGKα and DGKζ assays). The reactions were carried out in 50 mM MOPS pH 7.5, 100 mM NaCl, 10 mM MgCl2, 1 μM CaCl2, and 1 mM DTT (assay buffer). The reactions using a detergent/lipid micelle substrate also contained 50 mM octyl B-D-glucopyranoside. […] The lipid substrate concentrations were […], 0.25 mM DAG, and 2.75 mM PC for the extruded liposome reactions.
as §2, with “The compound inhibition studies were carried out as follows: 50 nL droplets of each test compound (top concentration 10 mM with 11 point, 3-fold dilution series for each compound) solubilized in DMSO were transferred to wells of a white 1536 well plate (Corning 3725). A 5” for “A 5”
as §3
Human DGK-alpha-TVMV-His-pFBgate and human DCK-zeta-transcript variant-2-TVMV-His-pFBgate baculovirus samples were generated using the Bac-to-Bac baculovirus expression system (Invitrogen) according to the manufacturer's protocol. The DNA used for expression of DGK-alpha and DGK-zeta have SEQ ID NOs: 1 and 3, respectively. Baculovirus amplification was achieved using infected Sf9 cells at 1:1500 virus/cell ratios, and grown for 65 hours at 27° C. post-transfection.
as §4
Full length human DGKα and DGKζ, each expressed containing a TVMV-cleavable C-terminal Hexa-His tag sequence (SEQ ID NOs: 2 and 4, respectively) and produced as described above, were purified from Sf) baculovirus-infected insect cell paste. The cells were lysed using nitrogen cavitation method with a nitrogen bomb (Parr Instruments), and the lysates were clarified by centrifugation. […] The three steps column chromatography included nickel affinity resin capture (i.e. HisTrap FF crude, GE Healthcare), followed by size exclusion chromatography (i.e. HiLoad 26/600 Superdex 200 prep grade, GE Healthcare for DGK-alpha, and HiPrep 26/600 Sephacryl S 300_HR, GE Healthcare for DGK-zeta). The third step was ion exchange chromatography, and differed for the two isoforms.

The mark [6] stands for this setting: extruded liposome substrate, read-out: DGKζ LIPGLO IC50.
The mark [7] stands for this setting: detergent/lipid micelle substrate, read-out: DGKζ IC50.

T1 sequence (P23743 other isoform, or with tags, fused parts or gaps): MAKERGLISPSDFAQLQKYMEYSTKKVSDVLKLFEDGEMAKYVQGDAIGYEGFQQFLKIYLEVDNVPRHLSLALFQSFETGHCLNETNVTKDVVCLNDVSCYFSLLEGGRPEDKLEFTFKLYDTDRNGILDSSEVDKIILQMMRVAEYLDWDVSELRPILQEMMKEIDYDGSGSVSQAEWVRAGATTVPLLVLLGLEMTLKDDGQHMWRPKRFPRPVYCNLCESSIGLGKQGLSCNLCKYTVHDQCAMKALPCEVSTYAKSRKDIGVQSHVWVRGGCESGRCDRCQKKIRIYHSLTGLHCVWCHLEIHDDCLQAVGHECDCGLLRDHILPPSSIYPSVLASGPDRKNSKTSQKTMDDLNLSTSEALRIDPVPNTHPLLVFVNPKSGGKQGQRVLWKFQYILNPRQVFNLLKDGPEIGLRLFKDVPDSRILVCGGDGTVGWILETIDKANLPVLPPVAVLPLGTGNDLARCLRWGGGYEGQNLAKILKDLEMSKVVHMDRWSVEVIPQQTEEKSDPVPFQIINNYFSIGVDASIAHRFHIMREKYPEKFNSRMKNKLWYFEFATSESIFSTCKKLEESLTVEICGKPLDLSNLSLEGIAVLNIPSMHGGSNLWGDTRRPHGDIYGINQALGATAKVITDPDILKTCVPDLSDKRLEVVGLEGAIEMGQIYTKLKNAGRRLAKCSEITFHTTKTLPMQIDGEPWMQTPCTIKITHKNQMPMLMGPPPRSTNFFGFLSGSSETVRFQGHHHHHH
T2 sequence (Q13574 other isoform, or with tags, fused parts or gaps): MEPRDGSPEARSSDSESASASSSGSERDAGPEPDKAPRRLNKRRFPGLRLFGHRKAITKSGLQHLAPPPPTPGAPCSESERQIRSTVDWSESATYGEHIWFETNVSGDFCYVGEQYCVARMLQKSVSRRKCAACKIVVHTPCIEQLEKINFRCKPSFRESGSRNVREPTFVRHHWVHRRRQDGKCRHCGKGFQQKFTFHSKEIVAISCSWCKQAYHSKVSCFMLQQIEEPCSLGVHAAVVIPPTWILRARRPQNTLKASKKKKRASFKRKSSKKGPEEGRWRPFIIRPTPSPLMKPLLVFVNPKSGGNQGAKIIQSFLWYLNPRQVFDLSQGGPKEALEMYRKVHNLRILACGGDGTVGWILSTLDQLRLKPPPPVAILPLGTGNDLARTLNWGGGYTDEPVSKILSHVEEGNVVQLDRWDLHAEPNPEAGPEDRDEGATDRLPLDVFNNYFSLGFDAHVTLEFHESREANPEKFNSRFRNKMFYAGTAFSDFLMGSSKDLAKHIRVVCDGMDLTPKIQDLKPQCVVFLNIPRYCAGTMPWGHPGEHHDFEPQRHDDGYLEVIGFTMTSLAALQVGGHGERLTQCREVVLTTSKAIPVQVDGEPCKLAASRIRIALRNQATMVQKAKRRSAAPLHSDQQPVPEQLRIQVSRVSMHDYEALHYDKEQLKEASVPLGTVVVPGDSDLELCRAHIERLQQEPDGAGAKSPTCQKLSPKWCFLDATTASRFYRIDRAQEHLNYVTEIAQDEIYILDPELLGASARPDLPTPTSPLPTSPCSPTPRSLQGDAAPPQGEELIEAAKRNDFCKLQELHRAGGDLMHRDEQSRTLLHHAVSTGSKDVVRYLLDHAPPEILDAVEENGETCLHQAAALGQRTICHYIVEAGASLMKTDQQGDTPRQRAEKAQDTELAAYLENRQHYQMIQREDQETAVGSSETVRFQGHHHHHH

Consider `C#CCn1c(=O)c([N+](=O)[O-])c(N2CCN(C(c3ccc(F)cc3)c3ccccc3OC)CC2)c2nc(C#N)ccc21` (single isomer, unassigned) [Example 130, 8-(4-((4-fluorophenyl)(2-methoxyphenyl)methyl)piperazin-1-yl)-7-nitro-6-oxo-5-(prop-2-yn-1-yl)-5,6-dihydro-1,5-naphthyridine-2-carbonitrile], for which the IC50 stood at 30 µM on human DGKα [1], 0.31 µM on human DGKζ [2] (setting [6]), 0.019 µM in assay [3] and 1.9 µM on human DGKζ [4] (setting [7]).

In the case of `CC(c1ccc(F)cc1)N1CCN(c2c(C#N)c(=O)n(CC3CC3)c3ccc(Br)nc23)CC1` (single isomer, unassigned) [Example 163, 6-bromo-1-(cyclopropylmethyl)-4-(4-(1-(4-fluorophenyl)ethyl)piperazin-1-yl)-2-oxo-1,2-dihydro-1,5-naphthyridine-3-carbonitrile], the half-maximal inhibitory concentration (IC50) against human DGKα [5] is 110 µM; on human DGKα [1] it was more than 240 µM; against human DGKζ [2] (DGKζ LIPGLO IC50, extruded liposome substrate), 110 µM; against human DGKζ [4] (DGKζ IC50, detergent/lipid micelle substrate), more than 240 µM.

`Cn1c(=O)c([N+](=O)[O-])c(N2CCN(Cc3cccc4ccccc34)CC2)c2nc(Br)ccc21` [Example 55, 6-bromo-1-methyl-4-(4-(naphthalen-1-ylmethyl)piperazin-1-yl)-3-nitro-1,5-naphthyridin-2(1H)-one]: the values for the 50% inhibitory concentration (IC50) (against human DGKα [5]; on human DGKζ [2] (setting [6]); in assay [3]) were 0.19 µM, 1.8 µM and 0.038 µM, respectively.

As to `C#CCn1c(=O)c([N+](=O)[O-])c(N2CCN(C(c3ccccc3)c3ccccc3)CC2)c2ncccc21` [Example 165, 4-(4-benzhydrylpiperazin-1-yl)-3-nitro-1-(prop-2-yn-1-yl)-1,5-naphthyridin-2(1H)-one], the IC50 against human DGKα [5] stood at 2.8 µM; on human DGKα [1], 3.4 µM; at human DGKζ [2] (setting [6]), 4.1 µM; at human DGKζ [4] (setting [7]), 92 µM.

In the case of `Cc1ccc2c(n1)c(N1CCN(C(c3ccc(F)cc3)C3CC3)CC1)c(C#N)c(=O)n2C` (centres unmarked) [Example 250, 4-{4-[cyclopropyl(4-fluorophenyl)methyl]piperazin-1-yl}-1,6-dimethyl-2-oxo-1,2-dihydro-1,5-naphthyridine-3-carbonitrile], the concentration for half-maximal inhibition (IC50) against human DGKα [5] was 5.1 µM; on human DGKζ [2] (setting [6]) it was more than 240 µM.

For the compound `COc1ncccc1C(c1ccc(F)cc1)N1CCN(c2c(C#N)c(=O)n(C)c3ccc(C)nc23)CC1` (centres unmarked) [Example 254, 4-{4-[(4-fluorophenyl)(2-methoxypyridin-3-yl)methyl]piperazin-1-yl}-1,6-dimethyl-2-oxo-1,2-dihydro-1,5-naphthyridine-3-carbonitrile], the IC50 against human DGKα [5] was 1.7 µM; on human DGKζ [2] (setting [6]), 16 µM.

In the case of `COc1cccnc1C(c1ccc(F)cc1)N1CCN(c2c(C#N)c(=O)n(C)c3ccc(C)nc23)CC1` (centres unmarked) [Example 255, 4-{4-[(4-fluorophenyl)(3-methoxypyridin-2-yl)methyl]piperazin-1-yl}-1,6-dimethyl-2-oxo-1,2-dihydro-1,5-naphthyridine-3-carbonitrile], the results for the IC50 at human DGKα [5] and at human DGKζ [2] (setting [6]) were 1.4 µM and 21 µM, respectively.

Regarding `Cn1c(=O)c(C#N)c(N2CCN(Cc3ccc(Cl)cc3O)CC2)c2nc(Br)ccc21` [Example 266, 6-bromo-4-{4-[(4-chloro-2-hydroxyphenyl)methyl]piperazin-1-yl}-1-methyl-2-oxo-1,2-dihydro-1,5-naphthyridine-3-carbonitrile], the IC50 is 0.027 µM on human DGKα [1], 11 µM at human DGKζ [2] (setting [6]), 0.041 µM in assay [3] and more than 240 µM at human DGKζ [4] (setting [7]).

Consider `Cn1c(=O)c(C#N)c(N2CCN(C(c3ccc(F)cc3)c3ccc(F)cc3)CC2)c2ncccc21` [Example 347, 4-{4-[bis(4-fluorophenyl)methyl]piperazin-1-yl}-1-methyl-2-oxo-1,2-dihydro-1,5-naphthyridine-3-carbonitrile], for which the IC50 at human DGKα [5] was determined as 2.6 µM; in assay [3], 1.2 µM.

As to `Cn1c(=O)c(C#N)c(N2CCN(Cc3ccc(OC(F)(F)F)cc3O)CC2)c2nc(Cl)ccc21` [Example 381, 6-chloro-4-(4-{[2-hydroxy-4-(trifluoromethoxy)phenyl]methyl}piperazin-1-yl)-1-methyl-2-oxo-1,2-dihydro-1,5-naphthyridine-3-carbonitrile], the figures for the IC50 on human DGKζ [2] (setting [6]) and on human DGKζ [4] (setting [7]) were 27 µM and more than 240 µM, respectively.

Take `Cc1ccc(C(c2ccccc2)N2CCN(c3c(C#N)c(=O)n(C)c4ccc(C#N)nc34)CC2)cc1` (centres unmarked) [Example 408, 5-methyl-8-{4-[(4-methylphenyl)(phenyl)methyl]piperazin-1-yl}-6-oxo-5,6-dihydro-1,5-naphthyridine-2,7-dicarbonitrile]: the 50% inhibitory concentration (IC50) worked out at 9 µM on human DGKα [5] and 1.1 µM on human DGKζ [2] (setting [6]).

In the case of `COc1cc(F)ccc1C(c1ccc(F)cc1OC)N1CCN(c2c(C#N)c(=O)n(C)c3ccc(C#N)nc23)CC1` [Example 409, 8-{4-[bis(4-fluoro-2-methoxyphenyl)methyl]piperazin-1-yl}-5-methyl-6-oxo-5,6-dihydro-1,5-naphthyridine-2,7-dicarbonitrile], the figures for the IC50 at human DGKα [5] and on human DGKζ [2] (setting [6]) were more than 240 µM and 0.95 µM, respectively.

For `Cc1ccc(C(c2ccccc2)N2CCN(c3c(C#N)c(=O)n(C)c4ccc(Br)nc34)CC2)cc1` (centres unmarked) [Example 431, 6-bromo-1-methyl-4-{4-[(4-methylphenyl)(phenyl)methyl]piperazin-1-yl}-2-oxo-1,2-dihydro-1,5-naphthyridine-3-carbonitrile], the IC50 on human DGKα [5] and at human DGKζ [2] (setting [6]) was 9 µM each time.
